Laboratory results taken from patent US6525001B1, “Substituted pyrimidine and pyridine herbicides” (Mid-American Commercialization Corporation, priority 1997, dated 2003).

How the values were obtained:
Experiment in all cases: Test B pre-/postemergence
Assay type in all cases: in vivo
Parameters in all cases: key: 0 is no effect; 10 is complete control
[1] = system: bedstraw (Galium aparine)
How it was run: (§1)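 Scored visually 0 (none) to 10 (complete control) against untreated plants after twelve to sixteen greenhouse days. Test chemicals, formulated in surfactant-containing non-phytotoxic solvent, applied to soil after planting and, separately, onto 1- to 4-leaf (2–18 cm) plants.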

[2] = system: blackgrass (Alopecurus myosuroides)
How it was run: as §1

[3] = system: broadleaf signalgrass (Brachiaria decumbens)
How it was run: as §1

[4] = system: cocklebur (Xanthium strumarium)
How it was run: as §1

[5] = system: corn (Zea mays)
How it was run: as §1

[6] = system: crabgrass (Digitaria sanguinalis)
How it was run: as §1

[7] = system: momingglory (Ipomoea hederacea)
How it was run: as §1

[8] = system: pigweed (Amaranthus retroflexus)
How it was run: as §1

[9] = system: rape (Brassica napus)
How it was run: as §1

[10] = system: soybean (Glycine max)
How it was run: as §1

[11] = system: sugar beet (Beta vulgaris)
How it was run: as §1

[12] = system: velvetleaf (Abutilon theophrasti)
How it was run: as §1

[13] = system: wheat (Triticum aestivum)
How it was run: as §1

[14] = system: wild oat (Avena fatua)
How it was run: as §1

Cc1cnc(-c2ccc(C(F)(F)F)cc2)nc1Cn1ccc(C(F)(F)C(F)(F)F)n1 [Compound 14]
Plant response rating, Bedstraw ([1]; Rate 62 g/ha, Postemergence): 4
Bedstraw plant response rating ([1]; Rate 62 g/ha, Preemergence): 0
Plant response rating, Bedstraw ([1]; Rate 125 g/ha, Postemergence): 4
Bedstraw plant response rating ([1]; Rate 125 g/ha, Preemergence): 0
Plant response rating, Bedstraw ([1]; Rate 250 g/ha, Postemergence): 8
Plant response rating, Bedstraw ([1]; Rate 250 g/ha, Preemergence): 0
Plant response rating, Bedstraw ([1]; Rate 500 g/ha, Postemergence): 10
Plant response rating, Bedstraw ([1]; Rate 500 g/ha, Preemergence): 2
Plant response rating, Blackgrass ([2]; Rate 62 g/ha, Postemergence): 1
Blackgrass plant response rating ([2]; Rate 62 g/ha, Preemergence): 0
Plant response rating, Blackgrass ([2]; Rate 125 g/ha, Postemergence): 2
Blackgrass plant response rating ([2]; Rate 125 g/ha, Preemergence): 0
Plant response rating, Blackgrass ([2]; Rate 250 g/ha, Postemergence): 3
Plant response rating, Blackgrass ([2]; Rate 250 g/ha, Preemergence): 0
Plant response rating, Blackgrass ([2]; Rate 500 g/ha, Postemergence): 3
Plant response rating, Blackgrass ([2]; Rate 500 g/ha, Preemergence): 3
Plant response rating, B. signalgrass ([3]; Rate 62 g/ha, Postemergence): 2
B. signalgrass plant response rating ([3]; Rate 62 g/ha, Preemergence): 0
Plant response rating, B. signalgrass ([3]; Rate 125 g/ha, Postemergence): 2
B. signalgrass plant response rating ([3]; Rate 125 g/ha, Preemergence): 0
Plant response rating, B. signalgrass ([3]; Rate 250 g/ha, Postemergence): 3
Plant response rating, B. signalgrass ([3]; Rate 250 g/ha, Preemergence): 0
Plant response rating, B. signalgrass ([3]; Rate 500 g/ha, Postemergence): 4
Plant response rating, B. signalgrass ([3]; Rate 500 g/ha, Preemergence): 5
Plant response rating, Cocklebur ([4]; Rate 62 g/ha, Postemergence): 4
Cocklebur plant response rating ([4]; Rate 62 g/ha, Preemergence): 0
Plant response rating, Cocklebur ([4]; Rate 125 g/ha, Postemergence): 7
Plant response rating, Cocklebur ([4]; Rate 250 g/ha, Postemergence): 7
Plant response rating, Cocklebur ([4]; Rate 250 g/ha, Preemergence): 0
Plant response rating, Cocklebur ([4]; Rate 500 g/ha, Postemergence): 7
Plant response rating, Corn ([5]; Rate 62 g/ha, Postemergence): 2
Corn plant response rating ([5]; Rate 62 g/ha, Preemergence): 0
Plant response rating, Corn ([5]; Rate 125 g/ha, Postemergence): 2
Corn plant response rating ([5]; Rate 125 g/ha, Preemergence): 0
Plant response rating, Corn ([5]; Rate 250 g/ha, Postemergence): 3
Plant response rating, Corn ([5]; Rate 250 g/ha, Preemergence): 0
Plant response rating, Corn ([5]; Rate 500 g/ha, Postemergence): 3
Plant response rating, Corn ([5]; Rate 500 g/ha, Preemergence): 3
Plant response rating, Crabgrass ([6]; Rate 62 g/ha, Postemergence): 2
Crabgrass plant response rating ([6]; Rate 62 g/ha, Preemergence): 0
Plant response rating, Crabgrass ([6]; Rate 125 g/ha, Postemergence): 2
Crabgrass plant response rating ([6]; Rate 125 g/ha, Preemergence): 1
Plant response rating, Crabgrass ([6]; Rate 250 g/ha, Postemergence): 2
Plant response rating, Crabgrass ([6]; Rate 250 g/ha, Preemergence): 7
Plant response rating, Crabgrass ([6]; Rate 500 g/ha, Postemergence): 4
Plant response rating, Crabgrass ([6]; Rate 500 g/ha, Preemergence): 8
Plant response rating, Morningglory ([7]; Rate 62 g/ha, Postemergence): 2
Morningglory plant response rating ([7]; Rate 62 g/ha, Preemergence): 0
Plant response rating, Morningglory ([7]; Rate 125 g/ha, Postemergence): 6
Morningglory plant response rating ([7]; Rate 125 g/ha, Preemergence): 0
Plant response rating, Morningglory ([7]; Rate 250 g/ha, Postemergence): 6
Plant response rating, Morningglory ([7]; Rate 250 g/ha, Preemergence): 2
Plant response rating, Morningglory ([7]; Rate 500 g/ha, Postemergence): 8
Plant response rating, Morningglory ([7]; Rate 500 g/ha, Preemergence): 8
Plant response rating, Redroot pigweed ([8]; Rate 62 g/ha, Postemergence): 8
Redroot pigweed plant response rating ([8]; Rate 62 g/ha, Preemergence): 0
Plant response rating, Redroot pigweed ([8]; Rate 125 g/ha, Postemergence): 9
Redroot pigweed plant response rating ([8]; Rate 125 g/ha, Preemergence): 2
Plant response rating, Redroot pigweed ([8]; Rate 250 g/ha, Postemergence): 9
Plant response rating, Redroot pigweed ([8]; Rate 250 g/ha, Preemergence): 4
Plant response rating, Redroot pigweed ([8]; Rate 500 g/ha, Postemergence): 9
Plant response rating, Redroot pigweed ([8]; Rate 500 g/ha, Preemergence): 4
Plant response rating, Rape ([9]; Rate 62 g/ha, Postemergence): 5
Rape plant response rating ([9]; Rate 62 g/ha, Preemergence): 0
Plant response rating, Rape ([9]; Rate 125 g/ha, Postemergence): 6
Rape plant response rating ([9]; Rate 125 g/ha, Preemergence): 1
Plant response rating, Rape ([9]; Rate 250 g/ha, Postemergence): 6
Plant response rating, Rape ([9]; Rate 250 g/ha, Preemergence): 2
Plant response rating, Rape ([9]; Rate 500 g/ha, Postemergence): 7
Plant response rating, Rape ([9]; Rate 500 g/ha, Preemergence): 8
Plant response rating, Soybean ([10]; Rate 62 g/ha, Postemergence): 4
Soybean plant response rating ([10]; Rate 62 g/ha, Preemergence): 0
Plant response rating, Soybean ([10]; Rate 125 g/ha, Postemergence): 4
Soybean plant response rating ([10]; Rate 125 g/ha, Preemergence): 0
Plant response rating, Soybean ([10]; Rate 250 g/ha, Postemergence): 5
Plant response rating, Soybean ([10]; Rate 250 g/ha, Preemergence): 0
Plant response rating, Soybean ([10]; Rate 500 g/ha, Postemergence): 5
Plant response rating, Soybean ([10]; Rate 500 g/ha, Preemergence): 1
Plant response rating, Sugarbeets ([11]; Rate 62 g/ha, Postemergence): 7
Sugarbeets plant response rating ([11]; Rate 62 g/ha, Preemergence): 3
Plant response rating, Sugarbeets ([11]; Rate 125 g/ha, Postemergence): 8
Sugarbeets plant response rating ([11]; Rate 125 g/ha, Preemergence): 5
Plant response rating, Sugarbeets ([11]; Rate 250 g/ha, Postemergence): 8
Plant response rating, Sugarbeets ([11]; Rate 250 g/ha, Preemergence): 6
Plant response rating, Sugarbeets ([11]; Rate 500 g/ha, Postemergence): 9
Plant response rating, Sugarbeets ([11]; Rate 500 g/ha, Preemergence): 9
Plant response rating, Velvetleaf ([12]; Rate 62 g/ha, Postemergence): 3
Velvetleaf plant response rating ([12]; Rate 62 g/ha, Preemergence): 0
Plant response rating, Velvetleaf ([12]; Rate 125 g/ha, Postemergence): 4
Velvetleaf plant response rating ([12]; Rate 125 g/ha, Preemergence): 0
Plant response rating, Velvetleaf ([12]; Rate 250 g/ha, Postemergence): 4
Plant response rating, Velvetleaf ([12]; Rate 250 g/ha, Preemergence): 1
Plant response rating, Velvetleaf ([12]; Rate 500 g/ha, Postemergence): 4
Plant response rating, Velvetleaf ([12]; Rate 500 g/ha, Preemergence): 7
Plant response rating, Wheat ([13]; Rate 62 g/ha, Postemergence): 0
Wheat plant response rating ([13]; Rate 62 g/ha, Preemergence): 0
Plant response rating, Wheat ([13]; Rate 125 g/ha, Postemergence): 0
Wheat plant response rating ([13]; Rate 125 g/ha, Preemergence): 0
Plant response rating, Wheat ([13]; Rate 250 g/ha, Postemergence): 2
Plant response rating, Wheat ([13]; Rate 250 g/ha, Preemergence): 0
Plant response rating, Wheat ([13]; Rate 500 g/ha, Postemergence): 3
Plant response rating, Wheat ([13]; Rate 500 g/ha, Preemergence): 0
Plant response rating, Wild oats ([14]; Rate 62 g/ha, Postemergence): 0
Wild oats plant response rating ([14]; Rate 62 g/ha, Preemergence): 0
Plant response rating, Wild oats ([14]; Rate 125 g/ha, Postemergence): 1
Wild oats plant response rating ([14]; Rate 125 g/ha, Preemergence): 0
Plant response rating, Wild oats ([14]; Rate 250 g/ha, Postemergence): 3
Plant response rating, Wild oats ([14]; Rate 250 g/ha, Preemergence): 0
Plant response rating, Wild oats ([14]; Rate 500 g/ha, Postemergence): 3
Plant response rating, Wild oats ([14]; Rate 500 g/ha, Preemergence): 2
